Where a SMILES comes first, the peptide text is derived from it. [ ]: non-standard residue; d: D form. The star is where a group is joined. Phe(4-guanidino) = N=C(N)Nc1ccc(C[C@H](N)C(=O)O)cc1; Bpa = N[C@@H](Cc1ccc(C(=O)c2ccccc2)cc1)C(=O)O; Phe(4-F) = N[C@@H](Cc1ccc(F)cc1)C(=O)O; NBD = O=[N+]([O-])c1ccc(*)c2nonc12; Orn = NCCC[C@H](N)C(=O)O; X2 = O=C(/C=C/c1ccccc1)*
Molecular target: T1, Proteinase-activated receptor 1 (Homo sapiens, UniProt P25116)
T1 sequence (P25116 whole entry): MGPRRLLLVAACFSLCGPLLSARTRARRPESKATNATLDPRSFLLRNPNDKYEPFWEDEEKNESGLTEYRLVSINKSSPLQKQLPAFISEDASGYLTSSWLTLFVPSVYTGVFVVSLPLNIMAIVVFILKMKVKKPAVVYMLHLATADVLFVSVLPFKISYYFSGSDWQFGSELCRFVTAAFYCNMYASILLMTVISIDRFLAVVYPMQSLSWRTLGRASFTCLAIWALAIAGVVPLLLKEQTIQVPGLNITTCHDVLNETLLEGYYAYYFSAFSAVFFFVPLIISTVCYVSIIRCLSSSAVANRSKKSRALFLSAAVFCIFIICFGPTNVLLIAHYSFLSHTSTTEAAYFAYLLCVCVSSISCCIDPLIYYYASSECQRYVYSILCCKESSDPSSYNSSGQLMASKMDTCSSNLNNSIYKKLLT
Assay: Human Thrombin receptor 1 (PAR-1) antagonistic ability to inhibit SFLLRN-NH2 (2.7 uM)-induced platelet aggregation; Not active at 110 uM concentration; call rule not given here
Format: functional

IC50: Not Active
Compound: CC(C)C[C@H](NC(=O)[C@H](Cc1ccc(NC(=N)N)cc1)NC(=O)[C@H](Cc1ccc(F)cc1)NC(=O)/C=C/c1ccccc1)C(=O)N[C@@H](Cc1ccc(C(=O)c2ccccc2)cc1)C(=O)N[C@@H](CCCNc1ccc([N+](=O)[O-])c2nonc12)C(=O)O (X2-[Phe(4-F)][Phe(4-guanidino)]L[Bpa][Orn](NBD)-OH)

Source: ChEMBL document CHEMBL1132030, “Photoactivatable peptides based on BMS-197525: a potent antagonist of the human thrombin receptor (PAR-1)” (Bioorg Med Chem Lett, 1999)
